From patent US20240293405A1, “(1H-PYRROLO[2,3-B]PYRIDIN-1-YL)PYRIMIDIN-2-YL-AMINO-PHENYL-ACRYLAMIDE INHIBITORS OF EGFR FOR USE IN THE TREATMENT OF BRAIN TUMORS” (Dana-Farber Cancer Institute, Inc., priority 2021, published 2024)
Values joined by “and” are separate entries in the source; they are usually repeats but may differ in a detail not shown here. Equal values may be shown once. “Also recorded” adds a separate entry of the source. Read-outs that look alike come from different tables or passages of the source.

Experiments:
[1] = Brain and plasma exposure after single oral dose; assay type: in vivo, Sprague Dawley rats; details: Compound 1 30 mg/kg PO, 30 mg/kg; for concentration at 7 h / Kp at 7 h / concentration at 3 h: Sprague Dawley, rat, po; for Kp at 7 h: read-out: Brain/Plasma (ratios)
[2] = test system: NSCLC brain metastases; assay: NSCLC brain metastases in SCID mice
[3] = Comparative metabolism and metabolic stability in hepatocytes; assay type: in vitro ADME, human, monkey, dog, rat and mouse
From the text: Compound 2 was a major demethylated active metabolite in all species and with the exception of a minor metabolite, M48 in human hepatocytes, all human metabolites were represented in the rat and/or dog, the toxicology species.

[4] = test system: PC-9 cells (EGFR exon 19 deletion); assay: Cell viability assay, PC-9 (CellTiter-Glo); assay type: cell-based; details: Homo sapiens, PC-9; read-out: IC50, cell viability
From the text: CellTier-Glo (Promega) assay kit (https://www.promega.com/resources/protocols/technical-bulletins/0/celltiter-glo-luminescentcell-viability-assay-protocol/) was used here.

[5] = target: EGFRvIII (Homo sapiens, UniProt P00533, DELINS30-297G); assay: EGFRvIII phosphorylation in U251-EGFRvIII cells (western blot); assay type: cell-based; set-up: expressed in transfected cells; host or cells: U251 (human GBM cell line), retroviral transduction; details: 20 hours, read-out: IC50 on EGFRvIII phosphorylation (pEGFRvIII1068)
From the text: Anti-a-Tubulin antibody was purchased from Sigma.
In parallel, the conventional human GBM U251 cell line was used as a surrogate model for both in vitro and in vivo studies. U251 cells were engineered to stably express EGFRvIII (U251-EGFRvIII) via retroviral-mediated gene transfer.

[6] = test system: broad human receptor profile; assay: Receptor selectivity screen; assay type: binding; details: 10 μM free base
Protocol: Compound 1 and/or Compound 2 (active/major metabolite) were evaluated for off-target activity in a large panel of receptors and ion channels, including a human ether-i-go-go-related gene (hERG) assay. Compound 1 was assessed comprehensively in Good Laboratory Practice (GLP) safety pharmacology studies, including studies of cardiovascular, respiratory and central nervous system function.

[7] = target: ALK (Homo sapiens, UniProt Q9UM73); assay: Kinase binding constant (Kd)
Protocol: (§1) EGFR amplifications and/or mutations are common in GBM, estimated to occur in over 50% of patients.
(§2) Compound 1 and Compound 2 (major metabolite) were evaluated in a panel of 468 human kinases and disease relevant mutant variants. Compound 1 and Compound 2 bound to few non-mutant kinases at <1% of control. […] While there is some variability between Compound 1 and Compound 2, it is clear that both compounds are very effective at binding to a large panel of mutant kinases. […] Binding constant to wild type EGFR was 4.9 nM.

[8] = target: PDGFRA (Homo sapiens, UniProt P16234); assay: Kinase binding constant (Kd)
Protocol: as §1, §2

[9] = target: PDGFRB (Homo sapiens, UniProt P09619); assay: Kinase binding constant (Kd)
Protocol: as §1, §2

[10] = test system: orthotopic U251-EGFRvIII tumors; assay: Orthotopic U251-EGFRvIII xenograft in mice; assay type: in vivo, mouse
Protocol: Gefitinib and erlotinib were purchased from Selleck Chemicals. Lapatinib was purchased from MedChemexpress. […] Compound 1 was synthesized by Pharmaron (Wang et al., bioRxiv, 2020.2003.2009.984500). For in vitro studies, compounds were dissolved in DMSO. For in vivo studies, Compound 1 was dissolved in 10% NMP/90% PEG300 and administered by oral gavage at 37.5 mg/kg or 75 mg/kg daily.
Cells (100,000 cells resuspended in 1 μl PBS) were intracranially injected into the right striatum (0 mm anterior, 2 mm lateral, and 2.5 mm ventral to bregma) of 8-10 week-old ICR-SCID mice. Animals were monitored daily for development of neurological defects.
Cells were transduced with lentiviral luciferase (HIV-Luc-zsGreen, addgene #39196). Bioluminescence signals from luciferase-expressing cells in live mice were recorded 10 minutes after intraperitoneal injection of D-luciferin (80 mg/kg) (Gold Biotechnology) with IVIS Lumina III Imaging System (PerkinElmer). The signals were analyzed with Living Image Software (PerkinElmer).
To evaluate the in vivo activity of Compound 1 in GBM with mutant EGFR, U251-EGFRvIII GBM cells expressing luciferase was generated to facilitate monitoring drug response in vivo by bioluminescence-imaging analysis. […]

[11] = Respiratory rate; assay type: in vivo; details: dog, PO up to 100 mg/kg
[12] = test system: P-gp, Bcrp; assay: Efflux liability; assay type: in vitro ADME; details: Compound 1, own data
From the text: Data obtained in a previously published report on brain penetration of EGFR TKIs in GMB was compared to brain penetrance data described herein (Table 5). […] Each of these drugs, with the exception of vizimpro, appeared to be a substrate of P-gp and Bcrp (efflux transporter proteins).

[13] = Skin toxicity in mice (visual observation); assay type: in vivo; details: Compound 1 10-50 mg/kg/day vs osimertinib 10-25 mg/kg/day
From the text: . (osmertinib, FIG. 6A; Compound 1, FIG. 6B).

Chain of EGFRvIII (P00533 with tags, fused parts or gaps DELINS30-297G): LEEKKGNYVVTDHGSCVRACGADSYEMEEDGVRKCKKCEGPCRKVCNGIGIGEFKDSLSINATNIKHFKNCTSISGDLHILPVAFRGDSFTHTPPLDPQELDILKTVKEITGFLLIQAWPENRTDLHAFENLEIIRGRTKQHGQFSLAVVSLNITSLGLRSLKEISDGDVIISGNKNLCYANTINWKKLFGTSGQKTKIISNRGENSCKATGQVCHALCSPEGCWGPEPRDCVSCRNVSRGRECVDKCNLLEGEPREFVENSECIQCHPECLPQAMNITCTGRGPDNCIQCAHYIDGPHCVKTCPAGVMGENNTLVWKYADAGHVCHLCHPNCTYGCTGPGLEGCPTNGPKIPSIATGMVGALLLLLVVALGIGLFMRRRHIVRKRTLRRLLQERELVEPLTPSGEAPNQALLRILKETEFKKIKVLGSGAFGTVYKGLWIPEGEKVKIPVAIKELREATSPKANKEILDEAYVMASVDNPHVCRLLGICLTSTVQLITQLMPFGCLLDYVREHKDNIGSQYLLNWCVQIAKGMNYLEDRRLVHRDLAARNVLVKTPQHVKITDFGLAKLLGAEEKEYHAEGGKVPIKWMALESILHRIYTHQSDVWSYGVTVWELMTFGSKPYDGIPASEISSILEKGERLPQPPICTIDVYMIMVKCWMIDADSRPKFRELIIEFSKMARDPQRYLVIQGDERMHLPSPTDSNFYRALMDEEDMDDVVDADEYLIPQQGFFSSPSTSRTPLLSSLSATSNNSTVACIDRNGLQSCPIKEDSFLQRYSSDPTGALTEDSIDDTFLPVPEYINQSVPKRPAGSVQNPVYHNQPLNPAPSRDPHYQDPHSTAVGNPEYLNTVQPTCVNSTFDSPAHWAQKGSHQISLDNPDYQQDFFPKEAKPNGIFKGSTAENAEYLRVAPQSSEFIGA
Chain of PDGFRA (P16234 24-1089): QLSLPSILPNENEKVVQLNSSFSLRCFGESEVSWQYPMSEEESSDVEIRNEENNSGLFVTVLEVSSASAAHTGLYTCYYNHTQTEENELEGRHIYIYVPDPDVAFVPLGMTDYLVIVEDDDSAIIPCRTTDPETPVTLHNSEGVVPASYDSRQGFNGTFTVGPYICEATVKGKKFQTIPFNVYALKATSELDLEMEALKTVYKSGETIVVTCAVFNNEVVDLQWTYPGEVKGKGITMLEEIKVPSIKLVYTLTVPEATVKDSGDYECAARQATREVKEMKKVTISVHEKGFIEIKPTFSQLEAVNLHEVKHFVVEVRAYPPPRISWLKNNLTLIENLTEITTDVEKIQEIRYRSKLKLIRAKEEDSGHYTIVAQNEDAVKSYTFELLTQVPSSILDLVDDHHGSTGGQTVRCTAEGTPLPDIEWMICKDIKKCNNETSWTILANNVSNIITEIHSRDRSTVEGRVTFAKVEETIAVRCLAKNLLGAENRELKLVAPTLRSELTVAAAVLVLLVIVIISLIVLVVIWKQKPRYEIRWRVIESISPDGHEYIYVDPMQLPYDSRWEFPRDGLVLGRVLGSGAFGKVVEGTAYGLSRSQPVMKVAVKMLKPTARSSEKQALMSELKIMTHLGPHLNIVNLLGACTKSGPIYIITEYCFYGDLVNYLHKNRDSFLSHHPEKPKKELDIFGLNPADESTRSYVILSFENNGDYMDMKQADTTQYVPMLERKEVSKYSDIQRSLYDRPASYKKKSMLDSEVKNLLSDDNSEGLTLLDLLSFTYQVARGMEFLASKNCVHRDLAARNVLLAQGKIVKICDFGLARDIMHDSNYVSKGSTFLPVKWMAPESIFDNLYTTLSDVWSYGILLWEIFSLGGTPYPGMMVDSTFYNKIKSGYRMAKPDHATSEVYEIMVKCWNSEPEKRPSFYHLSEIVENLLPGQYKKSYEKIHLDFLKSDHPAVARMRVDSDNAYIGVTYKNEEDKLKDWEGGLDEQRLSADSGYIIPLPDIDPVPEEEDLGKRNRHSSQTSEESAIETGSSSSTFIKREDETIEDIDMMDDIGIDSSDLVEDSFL
Chain of ALK (Q9UM73 19-1620): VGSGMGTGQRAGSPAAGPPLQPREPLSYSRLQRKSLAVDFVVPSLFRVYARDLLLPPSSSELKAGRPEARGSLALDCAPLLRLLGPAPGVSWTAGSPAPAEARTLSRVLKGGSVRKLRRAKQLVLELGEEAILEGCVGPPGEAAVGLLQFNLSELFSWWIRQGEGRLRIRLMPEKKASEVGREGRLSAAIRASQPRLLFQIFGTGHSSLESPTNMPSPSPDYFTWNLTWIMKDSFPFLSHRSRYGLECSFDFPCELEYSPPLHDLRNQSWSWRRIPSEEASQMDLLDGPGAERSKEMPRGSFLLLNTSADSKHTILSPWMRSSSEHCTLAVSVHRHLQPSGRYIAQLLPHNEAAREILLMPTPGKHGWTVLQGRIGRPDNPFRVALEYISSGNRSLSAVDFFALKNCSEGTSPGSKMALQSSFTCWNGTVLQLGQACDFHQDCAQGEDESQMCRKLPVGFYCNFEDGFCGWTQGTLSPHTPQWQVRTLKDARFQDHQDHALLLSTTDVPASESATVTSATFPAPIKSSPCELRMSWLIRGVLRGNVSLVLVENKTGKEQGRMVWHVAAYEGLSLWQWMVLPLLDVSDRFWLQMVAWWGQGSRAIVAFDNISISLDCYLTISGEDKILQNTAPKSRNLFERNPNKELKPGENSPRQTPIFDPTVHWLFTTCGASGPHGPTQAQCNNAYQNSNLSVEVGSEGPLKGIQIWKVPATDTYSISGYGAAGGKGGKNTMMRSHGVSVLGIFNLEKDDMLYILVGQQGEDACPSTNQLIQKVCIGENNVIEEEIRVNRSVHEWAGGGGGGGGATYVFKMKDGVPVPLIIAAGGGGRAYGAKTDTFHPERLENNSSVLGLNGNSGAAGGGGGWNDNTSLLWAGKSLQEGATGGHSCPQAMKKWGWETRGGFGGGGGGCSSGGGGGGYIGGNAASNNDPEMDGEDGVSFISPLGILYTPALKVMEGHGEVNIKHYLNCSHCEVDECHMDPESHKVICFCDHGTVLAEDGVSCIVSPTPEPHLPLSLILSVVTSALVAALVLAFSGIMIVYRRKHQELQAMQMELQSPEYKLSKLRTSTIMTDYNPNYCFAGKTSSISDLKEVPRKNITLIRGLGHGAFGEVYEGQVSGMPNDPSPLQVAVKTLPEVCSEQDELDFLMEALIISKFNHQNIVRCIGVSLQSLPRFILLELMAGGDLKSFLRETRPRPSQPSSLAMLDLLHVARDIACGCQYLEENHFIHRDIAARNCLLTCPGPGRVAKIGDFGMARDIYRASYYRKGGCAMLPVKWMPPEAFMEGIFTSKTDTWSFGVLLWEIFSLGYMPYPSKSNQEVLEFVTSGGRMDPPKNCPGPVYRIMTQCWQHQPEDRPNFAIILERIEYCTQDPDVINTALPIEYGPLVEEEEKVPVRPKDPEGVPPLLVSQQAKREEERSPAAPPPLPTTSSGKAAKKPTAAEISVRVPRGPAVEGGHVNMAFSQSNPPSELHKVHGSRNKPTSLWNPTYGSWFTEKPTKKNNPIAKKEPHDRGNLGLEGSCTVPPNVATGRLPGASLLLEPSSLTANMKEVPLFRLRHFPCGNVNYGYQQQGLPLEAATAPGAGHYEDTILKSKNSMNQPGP
Chain of PDGFRB (P09619 33-1106): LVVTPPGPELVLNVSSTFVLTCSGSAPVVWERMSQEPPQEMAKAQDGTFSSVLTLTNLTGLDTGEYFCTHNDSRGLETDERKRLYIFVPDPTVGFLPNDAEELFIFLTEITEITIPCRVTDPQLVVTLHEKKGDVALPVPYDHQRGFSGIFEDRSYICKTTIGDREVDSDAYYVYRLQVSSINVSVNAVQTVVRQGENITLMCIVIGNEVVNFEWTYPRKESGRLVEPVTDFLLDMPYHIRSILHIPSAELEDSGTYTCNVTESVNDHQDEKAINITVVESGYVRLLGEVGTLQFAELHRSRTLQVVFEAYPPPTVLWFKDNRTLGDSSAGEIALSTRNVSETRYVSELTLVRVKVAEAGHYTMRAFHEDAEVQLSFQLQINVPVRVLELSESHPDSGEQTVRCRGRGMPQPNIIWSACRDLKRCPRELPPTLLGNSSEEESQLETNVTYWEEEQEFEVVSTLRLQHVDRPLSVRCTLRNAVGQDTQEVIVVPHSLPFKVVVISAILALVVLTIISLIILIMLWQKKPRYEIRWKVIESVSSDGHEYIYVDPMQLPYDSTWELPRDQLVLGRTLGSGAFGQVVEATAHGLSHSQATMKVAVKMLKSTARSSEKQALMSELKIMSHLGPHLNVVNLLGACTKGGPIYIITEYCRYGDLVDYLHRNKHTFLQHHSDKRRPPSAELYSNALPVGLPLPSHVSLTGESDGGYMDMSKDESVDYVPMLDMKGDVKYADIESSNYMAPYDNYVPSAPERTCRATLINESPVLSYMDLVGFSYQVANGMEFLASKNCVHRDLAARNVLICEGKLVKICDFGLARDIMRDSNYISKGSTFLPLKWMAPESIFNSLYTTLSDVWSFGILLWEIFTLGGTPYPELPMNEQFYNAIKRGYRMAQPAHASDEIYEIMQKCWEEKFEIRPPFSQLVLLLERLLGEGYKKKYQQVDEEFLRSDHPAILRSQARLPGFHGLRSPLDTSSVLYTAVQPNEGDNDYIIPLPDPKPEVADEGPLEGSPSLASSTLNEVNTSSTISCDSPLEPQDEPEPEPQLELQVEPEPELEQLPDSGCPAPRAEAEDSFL

C=CC(=O)Nc1cc(Nc2nccc(-n3ccc4cccnc43)n2)c(OC)cc1N(C)CCN(C)C [Compound 1, N-(5-((4-(1H-pyrrolo[2,3-b]pyridin-1-yl)pyrimidin-2-yl)amino)-2-((2-(dimethylamino)ethyl)(methyl)amino)-4-methoxyphenyl)acrylamide]
Plasma Concentration ([1]; 3 hr, individual animal): 181 ng/mL and 229 ng/mL and 273 ng/mL | Brain Tissue Concentration ([1]; 7 hr, individual animal): 8280 ng/g and 5210 ng/g and 7400 ng/g | Brain/Plasma (ratios) ([1]; 7 hr, individual animal): 31.2 and 26.4 | Plasma Concentration ([1]; 7 hr, individual animal): 265 ng/mL and 197 ng/mL and 275 ng/mL | concentration at 7 h ([1]; brain, 7 hr, individual animal, read-out: Brain Tissue Concentration): 7400 ng/g | Kp at 7 h ([1]; brain, 7 hr, individual animal): 26.9 | concentration at 7 h ([1]; brain, 7 hr, mean n=3, read-out: Brain Tissue Concentration): 6960 ng/g | Kp at 7 h ([1]; brain, 7 hr, mean n=3): 28.3 | concentration at 3 h ([1]; plasma, 3 hr, individual animal): 273 ng/mL | concentration at 3 h ([1]; plasma, 3 hr, mean n=3): 228 ng/mL | concentration at 7 h ([1]; plasma, 7 hr, individual animal, read-out: Plasma Concentration): 275 ng/mL | concentration at 7 h ([1]; plasma, 7 hr, mean n=3, read-out: Plasma Concentration): 246 ng/mL | Median survival ([2]; 25 mpk, control 28.5 Days): 80.5 days | brain metastases relative to control post-treatment ([2]; Compound 1 25-50 mg/kg, osimertinib 25 mg/kg): Reduced brain metastases | metabolic stability ([3]; hepatocytes, species comparison): greatest in human hepatocytes | number of metabolites detected in hepatocytes ([3]; human, monkey, dog, rat and/or mouse hepatocytes): 22 | IC50 [4]: 0.0628 µM | IC50 [5]: 0.174 µM and 0.17 µM | off-target risk from receptor binding studies [6]: little off-target risk | Kd [7]: 0.25 µM | Kd [8]: 1.5 µM | Kd [9]: 5.2 µM | body weight during treatment ([10]; 37.5 and 75 mg/kg PO QD): stable body weight; also recorded: no significant body weight loss | luminescence signals of tumors ([10]; 37.5 and 75 mg/kg, dose-dependent): reduced the luminescence signals | effects on respiratory rate [11]: no adverse effects on respiratory rate | Efflux Liability [12]: Not a substrate | skin toxicity (visual observation) [13]: Lower Skin Toxicity than Osimertinib
